How the values were obtained:
[1] = permeation of fluorescent dyes from multi-layered device into buccal tissue; assay type: in vitro ADME, lamb
Text: FIGS. 5A-5C show three images taken from lamb buccal tissue at different time points.
In another representative embodiment, a multi-layered device may be used for the delivery of multiple agents over a prolonged period of time (FIG. 4, FIG. 5). If the example of mucositis is again used, multiple layers may include a pain mitigator in free form, a pain mitigator encapsulated within microparticles and an agent for the treatment of mucositis encapsulated within microparticles. The initial freeform layer is able to provide immediate pain relief, and the subsequent particle-encapsulated layers are capable of delivering microparticles beneath the tissue, where they further release their agents over a period of days, providing longer-term pain relief and treatment. FIG. 4 and FIG. 5 illustrate this effect. Fluorescence was used in order to provide detection. As shown, the multiple fluorescent layers released over time and permeated the tissue at different rates, providing a customized treatment.

[2] = release profile of cisplatin from particles, detected by atomic absorption spectrometry; assay type: physicochemical; conditions: over 60 hours; particles of average diameter 500 to 2000 nm
Text: FIG. 1 is a graph showing the release profile of example particles having an average diameter in the range of 500 to 2000 nm. […] Cisplatin was used for this experiment due to its use in the treatment of oral cancer and its ease of detection via atomic absorption spectrometry (AAS).

SMILES	permeation into tissue ([1]; after 30 minutes)	permeation into tissue ([1]; after 1 hour)	cisplatin released from NPs [2] [%]
O=C1OC2(c3ccc(O)cc3Oc3cc(O)ccc32)c2ccc(N=C=S)cc21 [FITC]	beginning to permeate the tissue	permeating deeper into the tissue	
N.N.[Cl][Pt][Cl] [cisplatin, Cisplatin]			45

Reference: patent US10159651B2, “Two-stage microparticle-based therapeutic delivery system and method” (Privo Technologies, Inc., priority 2016, dated 2018)
